We go through three molecules from patent publication US8211890B2, “5-amino-2-(1-hydroxy-ethyl)-tetrahydropyran derivatives” (Actelion Pharmaceuticals, priority 2008, dated 2012).

In data set [1] the test system is S. aureus A798. Nature of the data set: Bacterial growth minimal inhibitory concentrations (microdilution, cation-adjusted Mueller-Hinton Broth). The class given is cell-based. The note with it: for MIC: Staphylococcus aureus. As for the experimental part:
Minimal inhibitory concentrations (MICs; mg/l) were determined in cation-adjusted Mueller-Hinton Broth by a microdilution method following the description given in “Methods for Dilution Antimicrobial Susceptibility Tests for Bacteria that Grow Aerobically”, Approved standard, 7th ed., Clinical and Laboratory Standards Institute (CLSI) Document M7-A7, Wayne, Pa., USA, 2006.

Data set [2] has as its target hERG K+ channel (Homo sapiens, UniProt Q12809). The data set is described as follows: In vitro blocking of hERG K+ channels (QPatch automated patch-clamp, CHO-K1 cells). The class given is cell-based. The note with it: pH 7.4, at 10 μM, CHOhERG cells, 4 minutes of stimulation, average block on two cells. The procedure: hERG K^+ channels have been cloned from human heart and recombinant channels are stably expressed in CHO-K1 cells (CHOhERG). These cells have been purchased from bSys GmbH (CH-4052 Basel, Switzerland) and are grown in 150 mL culture flasks at 37° C. in 5% CO2. When the cells are ˜100% confluent, they are detached with 0.25% trypsin-EDTA solution and placed in the cell preparation unit of a QPatch automated patch-clamp robot (Sophion Bioscience A/S, 2750 Ballerup, Denmark). Currents through the hERG K^+ channels (IKhERG) are elicited using the following buffer solutions and voltage protocol: • extracellular solution (in mM): [NaCl]=150; [KCl]=4; [CaCl2]=1.2; [MgCl2]=1; [HEPES]=10; pH adjusted to 7.4 with NaOH; • intracellular solution (in mM): [KCl]=140; [NaCl]=10; [MgCl2]=1; [HEPES]=10; [EGTA]=5; [Mg-ATP]=5; […] After the cells have stabilized for a few minutes and the currents are steady, the amplitude of IKhERG is recorded under control conditions. Thereafter, the QPatch robot applies the test compound to the cell at the test concentration and, after 4 minutes of stimulation, the amplitude of IKhERG is recorded under test conditions. The ratio of the two amplitudes is used to define a fractional block and the average block on two cells is used to provide the effect of a given concentration (e.g. 10 μM). If, for a given test compound, a sufficient number of concentrations were tested, an apparent IC50 for inhibition of IKhERG is calculated.
For orientation: The hERG channel carries a current that helps repolarise heart muscle cells.

Setting [3] is: comparison table of compounds of formula ICOMP.

Chain of hERG K+ channel (Q12809 whole entry): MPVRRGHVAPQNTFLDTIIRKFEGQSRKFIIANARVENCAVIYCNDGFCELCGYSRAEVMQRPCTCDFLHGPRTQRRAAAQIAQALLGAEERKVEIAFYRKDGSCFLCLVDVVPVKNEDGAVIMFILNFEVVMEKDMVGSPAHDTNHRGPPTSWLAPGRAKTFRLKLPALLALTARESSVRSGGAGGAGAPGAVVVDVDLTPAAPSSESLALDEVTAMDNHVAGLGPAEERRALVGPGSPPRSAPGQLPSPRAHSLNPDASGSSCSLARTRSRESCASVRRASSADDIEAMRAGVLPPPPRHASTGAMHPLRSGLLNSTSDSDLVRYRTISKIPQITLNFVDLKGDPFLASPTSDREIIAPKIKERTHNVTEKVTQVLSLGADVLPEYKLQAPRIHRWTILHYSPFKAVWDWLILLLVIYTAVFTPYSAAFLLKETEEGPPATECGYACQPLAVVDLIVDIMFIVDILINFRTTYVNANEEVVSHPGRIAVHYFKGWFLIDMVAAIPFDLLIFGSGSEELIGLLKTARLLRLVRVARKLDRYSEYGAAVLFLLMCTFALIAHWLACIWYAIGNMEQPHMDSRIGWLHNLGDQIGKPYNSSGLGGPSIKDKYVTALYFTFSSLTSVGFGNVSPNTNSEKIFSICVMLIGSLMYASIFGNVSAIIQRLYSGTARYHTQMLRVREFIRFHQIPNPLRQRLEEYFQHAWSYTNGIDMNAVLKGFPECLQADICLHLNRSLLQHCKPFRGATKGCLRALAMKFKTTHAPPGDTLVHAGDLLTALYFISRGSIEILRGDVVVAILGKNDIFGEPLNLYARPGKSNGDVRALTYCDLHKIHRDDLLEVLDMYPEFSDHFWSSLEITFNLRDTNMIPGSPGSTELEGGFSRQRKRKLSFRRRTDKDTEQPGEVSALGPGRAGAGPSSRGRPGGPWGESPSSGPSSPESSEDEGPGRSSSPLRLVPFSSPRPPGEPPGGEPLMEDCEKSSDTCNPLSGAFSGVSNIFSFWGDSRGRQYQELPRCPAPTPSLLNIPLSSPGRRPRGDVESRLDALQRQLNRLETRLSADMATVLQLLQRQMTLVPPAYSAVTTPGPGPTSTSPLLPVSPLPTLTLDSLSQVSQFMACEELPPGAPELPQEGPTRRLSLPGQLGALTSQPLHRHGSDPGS

By MIC is commonly meant the smallest concentration in the dilution series that meets the test's criterion for growth inhibition. A lower MIC goes with inhibition by little substance. In general, inhibition refers to the share of the control response that was lost under treatment. A lower inhibition goes with little suppression. Take `COc1ccc2ncc(F)c(C[C@H](O)[C@@H]3CC[C@@H](NCc4cc5c(cn4)OCCO5)CO3)c2n1` [Example 3, (1S)-1-{(2S,5R)-5-[(2,3-dihydro-[1,4]dioxino[2,3-c]pyridin-7-ylmethyl)-amino]-tetrahydro-pyran-2-yl}-2-(3-fluoro-6-methoxy-[1,5]naphthyridin-4-yl)-ethanol]: the MIC in data set [1] (microdilution) was at most 0.031 µg/mL. In addition, in data set [1] (setting [3]), the “MIC for S. aureus A798” value is recorded as “≦0.031 mg/l”. This molecule also gave an inhibition at 4 min, 10 µM in data set [2] of 29%.

Turning to `COc1ccc2ncc(F)c(C[C@H](O)[C@@H]3CC[C@@H](NCc4cc5c(nn4)OCCO5)CO3)c2n1` [Example 4, (1S)-1-{(2S,5R)-5-[(6,7-dihydro-[1,4]dioxino[2,3-c]pyridazin-3-ylmethyl)-amino]-tetrahydro-pyran-2-yl}-2-(3-fluoro-6-methoxy-[1,5]naphthyridin-4-yl)-ethanol], in data set [1] (microdilution), the MIC is at most 0.031 µg/mL. In addition, in data set [1] (setting [3]), the “MIC for S. aureus A798” value is listed as “≦0.031 mg/l”. Moreover, the inhibition at 4 min, 10 µM in data set [2] was 5%.

Molecule `COc1ccc2ncc(F)c(CCC3CCC(NCc4cc5c(cn4)OCCO5)CO3)c2n1` (centres unmarked) [Reference Example No. 1, reference compound] registered a minimal inhibitory concentration (MIC) in data set [1] (setting [3]) of at most 0.031 µg/mL. The inhibition at 4 min, 10 µM in data set [2] was determined as 77%.
